Results reported in article PMC10857328, “Utilization of Biopolymer-Based Lutein Emulsion as an Effective Delivery System to Improve Lutein Bioavailability in Neonatal Rats” (Nutrients, 2024).
Where two headings read alike, the source gives them in different places.

Experiments:
[1] = encapsulation technique Nanoparticles, Sprague-Dawley rats, cited from earlier work
[2] = Acute dosing study: serum lutein kinetics, pharmacokinetic parameters and bioavailability; assay type: in vivo, neonatal Sprague-Dawley rats; details: 10 mg/kg body weight of lutein; for Serum lutein concentration: P10 pups
Description: To determine the bioavailability of lutein in neonatal Sprague-Dawley rats, an acute dosing study was conducted. The procedure was approved by the Institutional Animal Care and Use Committee of the University of Alabama (Number: 21-08-4864, 23 September 2021). On postnatal day 10 (P10), neonatal rats were randomly selected from litters and received a single dose of either free lutein (i.e., lutein ester dissolved in olive oil) or lutein emulsion, both containing 10 mg/kg body weight of lutein. The dose was administered to the pup’s mouth via a pipette. The concentration of lutein ester in the oil phase was 0.004 g/mL. The lutein dosage was selected based on our pilot study and previous studies. It is higher than the dosage used in human newborns but is considered acceptable and safe to be used in pharmacokinetic studies in rodent models. At 0.5 h, 1 h, 2 h, 4 h, 6 h, 12 h, and 24 h after dosing, pups (n = 3/time point/group) were euthanized, and blood, liver, spleen, brain, and eye were collected. Serum was obtained by centrifuging blood samples and tissues were stored at −80 °C until time of analysis. A group of rat pups (n = 3) not receiving treatments were used to measure the baseline lutein concentrations. Throughout the study, maternal rats consumed a purified diet with no lutein (D19120501, Research Diets Inc, New Brunswick, NJ, USA) (Table 1).
Serum and tissue lutein concentration was determined using an ultra-performance liquid chromatography (UPLC) system (Waters, Milford, MA, USA) equipped with a photo-diode array detector (PDA)/MS/MS, according to our well-established methods with slight modification. As for the serum, 100 μL of the sample was incubated with 2 mL of 100% ethanol at room temperature for an hour for lipid extraction. For the tissues, ~0.1 g of the sample was weighed, homogenized, and incubated with 2 mL of 100% ethanol at room temperature for an hour. An amount of 1 mL of 5% (w/v) potassium hydroxide was added to the sample and incubated in a water bath at 60 °C for 45 min for saponification. Upon saponification, samples were allowed to cool for about 15 min, and then an addition of 4 mL of hexane containing 0.1% butylated hydroxytoluene (w/v) and 2 mL of deionized water was added. The mixture was vortexed for 20 s and centrifuged at 1600 rpm at 25 °C for 15 min. The upper layer was collected following centrifugation and dried under nitrogen at 37 °C. The dried sample was then rinsed twice with hexane, dried, and reconstituted with 100 µL of acetonitrile-methanol. The reconstituted sample was centrifuged for 2 min to remove any possible precipitation. For UPLC analysis, 10 µL of the sample was injected into the Waters Acquity UPLC HSS T3 column. Solvent A was acetonitrile: methanol (50:50, v/v), and solvent B was 100% isopropanol. The mobile phase was made up of solvent A and solvent B in a volume ratio of 95:5 (v/v). The flow rate was set as 0.5 mL/min, and the column temperature was maintained at 35 °C. The detection wavelength was set at 446 nm. Retinyl acetate (Sigma-Aldrich, St. Louis, MO, USA) was used as the internal standard.
Bioavailability is defined as the rate and range of the active compound to the systemic circulation through a single oral administration. It can be evaluated by pharmacokinetic parameters derived from the compound kinetic curve (serum concentration vs. time). In the acute dosing study, pharmacokinetic parameters, including maximum lutein concentration (Cmax), time to reach Cmax (Tmax), and area under the time-concentration curve (AUC0–24) were determined. Cmax and Tmax were read directly from the serum lutein kinetic curve. The area under the time-concentration curve (AUC0–24) was calculated by trapezoid rule with linear interpolation using GraphPad Prism 8.0 (San Diego, CA, USA). […]

[3] = encapsulation technique Polymer, Mice, cited from earlier work

## Lutein ester [Free Lutein]
[1]; ref Chang et al. (2018) [59]
  Tmax (serum): 3 h
[1]; ref Liu et al. (2017) [37]
  Tmax (serum): 2 h
[1]; ref Wu et al. (2019) [54]
  Tmax (serum): 2 h
[1]; ref Zhang et al. (2015) [58]
  Tmax (serum): 6 ± 2.2 h
[2]; 0.5 h after single oral dose
  Serum lutein concentration: 0.00 ± 0.00 nmol/L
[2]; 6 h after single oral dose
  Serum lutein concentration: 132.91 ± 64.96 nmol/L
[2]; 24 h after single oral dose
  Serum lutein concentration: 43.16 ± 8.53 nmol/L
[2]; single oral dose
  Tmax, time to reach Cmax (serum): 4 h
[2]; single oral dose, read-out: Cmax, maximum serum lutein concentration
  Cmax: 145 ± 49 nM
[2]; single oral dose, serum
  AUC0–24: 1987 ± 247.90 nmol/L∗h
[3]; ref Arunkumar et al. (2015) [42]
  Tmax (serum): 4 h
[3]; ref Ranganathan et al. (2019) [57]
  Tmax (serum): 4 h
